Experimental data reported in ChEMBL document CHEMBL6120973 (J Med Chem, 2024).
Values after ≈ are worked out from the molar mass of the structure shown.

What was measured:
[1] = Acute toxicity in male ICR mouse assessed as effect on pathological damage in heart at 2000 mg/kg, IG measured after 14 days by H and E staining based analysis; format: organism-based; details: in vivo, po, 336 h, time 14 day
Cytochrome P450 1A2 = target: T1, Cytochrome P450 1A2 (Homo sapiens, UniProt P05177); assay: Inhibition of CYP1A2 in human liver microsomes preincubated for 10 mins followed by NADPH addition and measured after 15 mins by LC/MS/MS analysis
T1 sequence (P05177 whole entry): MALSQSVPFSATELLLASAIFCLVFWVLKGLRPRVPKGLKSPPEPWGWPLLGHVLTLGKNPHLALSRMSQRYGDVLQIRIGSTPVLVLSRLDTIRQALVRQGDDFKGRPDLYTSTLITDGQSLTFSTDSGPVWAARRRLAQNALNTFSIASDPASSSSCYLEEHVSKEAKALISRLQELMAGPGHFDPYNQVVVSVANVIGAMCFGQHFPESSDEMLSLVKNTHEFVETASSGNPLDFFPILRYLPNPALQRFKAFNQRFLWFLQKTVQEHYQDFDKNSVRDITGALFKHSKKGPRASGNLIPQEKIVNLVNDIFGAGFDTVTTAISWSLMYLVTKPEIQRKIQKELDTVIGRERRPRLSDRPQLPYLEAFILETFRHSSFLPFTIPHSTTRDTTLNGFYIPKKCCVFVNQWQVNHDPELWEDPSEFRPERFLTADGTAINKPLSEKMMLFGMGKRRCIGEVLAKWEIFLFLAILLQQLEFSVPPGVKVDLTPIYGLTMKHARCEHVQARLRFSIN

[2] = Cytotoxicity against human MT4 cells assessed as reduction in cell viability measured after 5 days by MTT assay; details: MT4 cells
[3] = test system: Human immunodeficiency virus 1; assay: Antiviral activity against HIV-1 harboring RT F227L/V106A double mutant infected in human MT4 cells assessed as protection against virus-induced cytopathic effect incubated for 5 days by MTT assay; format: functional, organism-based; details: Human immunodeficiency virus 1, MT4, 120 h
[4] = test system: Human immunodeficiency virus 1; assay: Antiviral activity against HIV-1 harboring RT Y188L mutant infected in human MT4 cells assessed as protection against virus-induced cytopathic effect incubated for 5 days by MTT assay; format: functional, organism-based; details: Human immunodeficiency virus 1, MT4, 120 h
[5] = Metabolic stability in rat liver microsomes assessed as half-life at 0.1 uM preincubated for 10 mins followed by NADPH addition and measured upto 60 mins by LC-MS/MS analysis; format: ADME, Microsome; details: time < 70 min
[6] = Acute toxicity in male ICR mouse assessed as effect on pathological damage in kidney at 2000 mg/kg, IG measured after 14 days by H and E staining based analysis; format: organism-based; details: in vivo, po, 336 h, time 14 day
[7] = Acute toxicity in female ICR mouse assessed as effect on pathological damage in kidney at 2000 mg/kg, IG measured after 14 days by H and E staining based analysis; format: organism-based; details: in vivo, po, 336 h, time 14 day
[8] = Solubility of compound in phosphate buffer at pH 7.0 measured after 24 hrs by HPLC analysis; format: physicochemical
[9] = Acute toxicity in male ICR mouse assessed as effect on body weight at 2000 mg/kg, IG measured after 14 days; format: organism-based; details: in vivo, po, 336 h, time 14 day
[10] = Acute toxicity in female ICR mouse assessed as effect on body weight at 2000 mg/kg, IG measured after 14 days; format: organism-based; details: in vivo, po, 336 h, time 14 day
[11] = Metabolic stability in human liver microsomes assessed as half-life at 0.1 uM preincubated for 10 mins followed by NADPH addition and measured upto 60 mins by LC-MS/MS analysis; format: ADME, Microsome; details: time < 70 min
[12] = test system: Human immunodeficiency virus 1; assay: Antiviral activity against HIV-1 harboring RT L100I mutant infected in human MT4 cells assessed as protection against virus-induced cytopathic effect incubated for 5 days by MTT assay; format: functional, organism-based; details: Human immunodeficiency virus 1, MT4, 120 h
[13] = Acute toxicity in female ICR mouse assessed as effect on pathological damage in brain at 2000 mg/kg, IG measured after 14 days by H and E staining based analysis; format: organism-based; details: in vivo, po, 336 h, time 14 day
Cytochrome P450 2D6 = Cytochrome P450 2D6 (Homo sapiens, UniProt P10635); assay: Inhibition of CYP2D6 in human liver microsomes preincubated for 10 mins followed by NADPH addition and measured after 15 mins by LC/MS/MS analysis
Chain of Cytochrome P450 2D6 (P10635 whole entry): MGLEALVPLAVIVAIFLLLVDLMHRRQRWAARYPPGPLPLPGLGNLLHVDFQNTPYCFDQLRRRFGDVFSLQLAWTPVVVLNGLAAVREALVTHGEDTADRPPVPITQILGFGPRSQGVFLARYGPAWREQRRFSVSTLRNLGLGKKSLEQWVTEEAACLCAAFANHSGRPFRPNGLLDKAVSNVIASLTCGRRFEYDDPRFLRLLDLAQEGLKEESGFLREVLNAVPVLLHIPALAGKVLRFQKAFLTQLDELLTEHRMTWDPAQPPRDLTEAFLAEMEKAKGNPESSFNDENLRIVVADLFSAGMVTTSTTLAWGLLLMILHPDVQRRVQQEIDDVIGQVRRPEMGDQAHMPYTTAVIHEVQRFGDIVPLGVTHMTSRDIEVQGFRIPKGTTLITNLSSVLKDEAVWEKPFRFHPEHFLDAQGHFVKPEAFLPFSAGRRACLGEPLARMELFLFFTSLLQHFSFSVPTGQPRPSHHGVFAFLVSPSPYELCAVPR

[14] = Acute toxicity in female ICR mouse assessed as effect on pathological damage in heart at 2000 mg/kg, IG measured after 14 days by H and E staining based analysis; format: organism-based; details: in vivo, po, 336 h, time 14 day
[15] = test system: Human immunodeficiency virus 1; assay: Potency index, ratio of 4-(8-(3-nitrophenyl)-1,7-naphthyridin-6-yl)benzoic acid MIC to test compound MIC for antiviral activity against wildtype HIV-1 IIIB infected in human MT4 cells assessed as protection against virus-induced cytopathic effect incubated for 5 days by MTT assay; format: functional; details: time 5 day
[16] = Metabolic stability in dog liver microsomes assessed as half-life at 0.1 uM preincubated for 10 mins followed by NADPH addition and measured upto 60 mins by LC-MS/MS analysis; format: ADME, Canis lupus familiaris, Microsome; details: time < 70 min
[17] = Acute toxicity in male ICR mouse assessed as effect on behavior at 2000 mg/kg, IG measured after 14 days; format: organism-based; details: in vivo, po, 336 h, time 14 day
Cytochrome P450 2C9 = Cytochrome P450 2C9 (Homo sapiens, UniProt P11712); assay: Inhibition of CYP2C9 in human liver microsomes preincubated for 10 mins followed by NADPH addition and measured after 15 mins by LC/MS/MS analysis
Chain of Cytochrome P450 2C9 (P11712 whole entry): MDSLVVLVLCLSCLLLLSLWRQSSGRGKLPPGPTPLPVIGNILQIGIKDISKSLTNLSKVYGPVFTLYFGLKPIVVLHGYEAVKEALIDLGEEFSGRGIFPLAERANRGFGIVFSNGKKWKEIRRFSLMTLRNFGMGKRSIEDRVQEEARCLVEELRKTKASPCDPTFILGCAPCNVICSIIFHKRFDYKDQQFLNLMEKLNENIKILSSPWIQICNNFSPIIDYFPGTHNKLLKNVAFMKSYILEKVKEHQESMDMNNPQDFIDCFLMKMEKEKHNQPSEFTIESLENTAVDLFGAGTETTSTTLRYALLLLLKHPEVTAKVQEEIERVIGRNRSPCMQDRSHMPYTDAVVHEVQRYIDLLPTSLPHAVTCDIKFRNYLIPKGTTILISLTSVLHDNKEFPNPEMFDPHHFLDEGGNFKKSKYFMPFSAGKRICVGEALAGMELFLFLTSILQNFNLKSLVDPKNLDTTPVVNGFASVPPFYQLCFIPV

[18] = Acute toxicity in male ICR mouse assessed as effect on pathological damage in liver at 2000 mg/kg, IG measured after 14 days by H and E staining based analysis; format: organism-based; details: in vivo, po, 336 h, time 14 day
[19] = test system: Human immunodeficiency virus 1; assay: Antiviral activity against HIV-1 harboring RT Y181C mutant infected in human MT4 cells assessed as protection against virus-induced cytopathic effect incubated for 5 days by MTT assay; format: functional, organism-based; details: Human immunodeficiency virus 1, MT4, 120 h
[20] = Acute toxicity in male ICR mouse assessed as effect on pathological damage in brain at 2000 mg/kg, IG measured after 14 days by H and E staining based analysis; format: organism-based; details: in vivo, po, 336 h, time 14 day
[21] = Selectivity index, ratio of CC50 for human MT4 cells to EC50 for wild type HIV-1 IIIB infected in human MT4 cellS; details: MT4 cells
[22] = test system: Human immunodeficiency virus 1; assay: Antiviral activity against HIV-1 harboring RT K103N/Y181C double mutant infected in human MT4 cells assessed as protection against virus-induced cytopathic effect incubated for 5 days by MTT assay; format: functional, organism-based; details: Human immunodeficiency virus 1, MT4, 120 h
Cytochrome P450 3A4 [23] = target: T2, Cytochrome P450 3A4 (Homo sapiens, UniProt P08684); assay: Inhibition of CYP3A4 in human liver microsomes using testosterone as substrate preincubated for 10 mins followed by NADPH addition and measured after 15 mins by LC/MS/MS analysis
T2 sequence (P08684 whole entry): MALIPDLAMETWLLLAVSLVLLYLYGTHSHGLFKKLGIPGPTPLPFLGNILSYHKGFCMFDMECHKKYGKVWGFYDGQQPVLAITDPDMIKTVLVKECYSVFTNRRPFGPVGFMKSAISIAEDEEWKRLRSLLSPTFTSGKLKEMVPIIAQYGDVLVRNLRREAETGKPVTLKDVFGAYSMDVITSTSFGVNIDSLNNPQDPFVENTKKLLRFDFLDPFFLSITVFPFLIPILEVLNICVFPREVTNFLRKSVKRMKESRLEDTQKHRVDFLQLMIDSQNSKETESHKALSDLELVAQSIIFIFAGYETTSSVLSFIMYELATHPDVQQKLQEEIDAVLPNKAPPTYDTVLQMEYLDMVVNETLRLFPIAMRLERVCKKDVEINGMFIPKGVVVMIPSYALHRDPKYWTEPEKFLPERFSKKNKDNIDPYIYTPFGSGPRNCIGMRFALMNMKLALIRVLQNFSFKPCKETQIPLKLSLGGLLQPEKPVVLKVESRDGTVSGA

[24] = test system: Human immunodeficiency virus 1; assay: Antiviral activity against HIV-1 harboring RT E138K mutant infected in human MT4 cells assessed as protection against virus-induced cytopathic effect incubated for 5 days by MTT assay; format: functional, organism-based; details: Human immunodeficiency virus 1, MT4, 120 h
[25] = Solubility of compound in Watson's distilled pure water measured after 24 hrs by HPLC analysis; format: physicochemical
Cytochrome P450 3A4 [26] = target: T2, Cytochrome P450 3A4; assay: Inhibition of CYP3A4 in human liver microsomes using midazolam as substrate preincubated for 10 mins followed by NADPH addition and measured after 15 mins by LC/MS/MS analysis
[27] = Acute toxicity in female ICR mouse assessed as effect on behavior at 2000 mg/kg, IG measured after 14 days; format: organism-based; details: in vivo, po, 336 h, time 14 day
[28] = Acute toxicity in female ICR mouse assessed as effect on pathological damage in lung at 2000 mg/kg, IG measured after 14 days by H and E staining based analysis; format: organism-based; details: in vivo, po, 336 h, time 14 day

## Cc1cc(-c2ccncc2)cc(C)c1Nc1nc(Nc2ccc(C#N)cc2)ncc1-c1cn[nH]c1
[1]
  Activity: Non-toxic
Cytochrome P450 1A2
  IC50: > 50000 nM
[2]
  CC50 at 120 h: > 273000 nM
[3]
  EC50: 79 nM
[4]
  EC50: 13 nM
[5]
  half-life at 0.1 µM: 20.4 min
[6]
  Activity: Non-toxic
[7]
  Activity: Non-toxic
[8]
  solubility at 24 h: < 1 µg/mL
[9]
  Activity: Non-toxic
[10]
  Activity: Non-toxic
[11]
  half-life at 0.1 µM: 29.9 min
[12]
  EC50: 9 nM
[13]
  Activity: Non-toxic
Cytochrome P450 2D6
  IC50: > 50000 nM
[14]
  Activity: Non-toxic
[15]
  Ratio: 37
[16]
  half-life at 0.1 µM: 58.8 min
[17]
  Activity: Non-toxic
Cytochrome P450 2C9
  IC50: > 50000 nM
[18]
  Activity: Non-toxic
[19]
  EC50: 13 nM
[20]
  Activity: Non-toxic
[21]
  selectivity ratio: > 52600
[22]
  EC50: 42 nM
Cytochrome P450 3A4 [23]
  IC50: > 50000 nM
[24]
  EC50: 11 nM
[25]
  solubility at 24 h: 1.3 µg/mL (≈ 2.84 µM)
Cytochrome P450 3A4 [26]
  IC50: > 50000 nM
[27]
  Activity: Non-toxic
[28]
  Activity: Non-toxic
